# Patent publication US9359371B2, “Bicyclic substituted pyrimidine compounds” (Xuanzhu Pharma Co., Ltd., priority 2012, dated 2016)
# Like-named read-outs stand apart in the source and are kept apart here.
# How the values were obtained:
# [1] = target: PDE-5 enzyme (human blood platelets) (Homo sapiens (Human), UniProt O76074); assay: PDE-5 enzyme assay, [3H]cGMP; format: biochemical
# bovine retinal PDE-6 [2] = target: bovine retinal PDE-6 (Bos taurus (Bovine), UniProt P11541+P23439); assay: PDE-6 enzyme assay, [3H]cGMP; format: biochemical
# Chain of bovine retinal PDE-6 (Bos taurus (Bovine), UniProt P11541+P23439) (P11541 whole entry, looked up): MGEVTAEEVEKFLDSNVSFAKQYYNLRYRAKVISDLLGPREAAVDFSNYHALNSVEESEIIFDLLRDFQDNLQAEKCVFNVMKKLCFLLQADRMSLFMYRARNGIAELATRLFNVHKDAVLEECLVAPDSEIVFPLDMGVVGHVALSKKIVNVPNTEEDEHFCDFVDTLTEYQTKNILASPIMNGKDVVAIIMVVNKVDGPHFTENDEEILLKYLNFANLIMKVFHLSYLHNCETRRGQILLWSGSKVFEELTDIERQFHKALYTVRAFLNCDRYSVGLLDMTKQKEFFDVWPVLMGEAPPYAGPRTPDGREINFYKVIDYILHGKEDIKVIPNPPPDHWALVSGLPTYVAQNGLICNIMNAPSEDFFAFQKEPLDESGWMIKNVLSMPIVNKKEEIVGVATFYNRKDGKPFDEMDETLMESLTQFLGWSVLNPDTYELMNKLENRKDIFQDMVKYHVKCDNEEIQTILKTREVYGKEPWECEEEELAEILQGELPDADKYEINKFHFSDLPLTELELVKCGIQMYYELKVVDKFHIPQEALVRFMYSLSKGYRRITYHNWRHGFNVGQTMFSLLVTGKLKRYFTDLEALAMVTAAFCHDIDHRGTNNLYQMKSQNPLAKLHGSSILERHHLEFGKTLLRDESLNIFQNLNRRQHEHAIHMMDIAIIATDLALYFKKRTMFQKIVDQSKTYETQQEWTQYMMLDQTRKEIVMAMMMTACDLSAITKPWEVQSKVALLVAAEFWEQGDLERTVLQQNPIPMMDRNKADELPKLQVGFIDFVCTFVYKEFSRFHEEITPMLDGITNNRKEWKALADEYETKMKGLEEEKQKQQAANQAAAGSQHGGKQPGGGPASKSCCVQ
# Chain of bovine retinal PDE-6 (Bos taurus (Bovine), UniProt P11541+P23439) (P23439 whole entry, looked up): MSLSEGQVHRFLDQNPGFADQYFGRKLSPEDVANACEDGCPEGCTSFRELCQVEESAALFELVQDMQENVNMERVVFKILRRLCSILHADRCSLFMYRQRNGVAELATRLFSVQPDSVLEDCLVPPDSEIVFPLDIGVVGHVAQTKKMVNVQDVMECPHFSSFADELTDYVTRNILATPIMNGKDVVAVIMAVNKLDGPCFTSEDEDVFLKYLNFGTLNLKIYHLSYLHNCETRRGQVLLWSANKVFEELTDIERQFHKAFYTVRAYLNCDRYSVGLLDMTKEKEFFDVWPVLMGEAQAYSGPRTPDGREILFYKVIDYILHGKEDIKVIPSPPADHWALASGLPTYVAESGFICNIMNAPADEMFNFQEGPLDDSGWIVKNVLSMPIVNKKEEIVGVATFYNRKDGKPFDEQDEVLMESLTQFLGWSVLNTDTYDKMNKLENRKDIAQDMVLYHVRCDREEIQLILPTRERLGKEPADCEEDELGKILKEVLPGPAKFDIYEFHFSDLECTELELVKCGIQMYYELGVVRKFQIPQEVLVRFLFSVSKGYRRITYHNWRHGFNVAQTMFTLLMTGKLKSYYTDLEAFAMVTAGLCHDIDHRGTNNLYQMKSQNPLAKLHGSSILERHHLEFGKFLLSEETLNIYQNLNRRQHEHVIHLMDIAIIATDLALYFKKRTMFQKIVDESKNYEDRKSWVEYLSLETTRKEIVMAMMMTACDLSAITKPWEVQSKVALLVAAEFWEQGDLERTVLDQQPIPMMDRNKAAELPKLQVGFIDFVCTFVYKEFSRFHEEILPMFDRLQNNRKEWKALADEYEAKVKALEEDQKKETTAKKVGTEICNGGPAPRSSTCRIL
# Method: (§1) Experiment 3: Measurement of Enzyme Activity on PDE-6 Enzyme In Vitro
# (§2) Source of enzyme: PDE-6, bovine retinal PDE-6
# (§3) Method: The test compound or solvent was incubated at 25° C. for 15 min with enzyme solution (0.2 μg/mL) in Tris-HCl buffer of pH 7.5. 100 μM cGMP and 0.03 μM [^3H] cGMP were then added to activate the reaction. The mixture was incubated for 20 min. The reaction was stopped at 100° C. By addition of snake venom nucleotidase, the product [^3H] GMP was converted into [^3H] Guanosine, which was separated with AG1-X2 resin. The amount of [^3H] Guanosine was measured.
# [3] = tested on: length of New Zealand rabbit's penis; assay: Pharmacological activity in vivo (intravenous injection), rabbit penis length; design: species or system New Zealand rabbits; conditions: iv 10 mg/kg, sodium nitroprussiate 0.2 mg/kg iv 5 min after, 0-120 min
# Method: Experiment 5: Assay of Pharmacological Activity In Vivo (Intravenous Injection)
# After accommodating with the environment, the New Zealand rabbits were grabbed everyday. When the rabbits were accustomed to the repeated grabbing, drug administration was began. The animals were randomly divided into groups by weight. The test compounds were separately dissolved in menstruum. […] The corresponding test compounds were injected into the auricular veins of animals of each group. The dosage of the compounds in Table 5 was 10 mg/kg, and the administration volume was 1 mL/kg. The dosage of the compounds in Table 6 was 10 mg/kg, and the administration volume was 2 mL/kg. 0.2 mg/kg sodium nitroprussiate was intravenously injected into the rabbits 5 min after the administration of the test compounds, with the administration volume of 0.5 mL/kg.
# The length of the rabbit's penis was measured with a digital caliper before and 10, 15, 30, 50, 60, 90 and 120 min after the administration. Touch of the rabbit's penis by the caliper was avoided during the measurements.
# [4] = tested on: length of New Zealand rabbit's penis; assay: Pharmacological activity in vivo (oral administration, 100 mg/kg), rabbit penis length; design: species or system New Zealand rabbits; conditions: Table 7; oral 100 mg/kg; 0-240 min
# Text: Experiment 6: Assay of Pharmacological Activity In Vivo (Oral Administration)
# After accommodating with the environment, the New Zealand rabbits were grabbed everyday. When the rabbits were accustomed to the repeated grabbing, drug administration was began. The animals were randomly divided into groups by weight, with 6 rabbits of each group. The test compounds were separately dissolved in menstruum. […] The corresponding test compounds were orally administrated to animals of each group. The dosage was 100 mg/kg, and the administration volume was 1 mL/kg. The length of the rabbit's penis was measured with a digital caliper before and 5, 10, 15, 30, 50, 60, 90, 120, 180 and 240 min after the administration. Touch of the rabbit's penis by the caliper was avoided during the measurements.
# [5] = tested on: length of New Zealand rabbit's penis; assay: Pharmacological activity in vivo (oral administration, 70 mg/kg, with SNP), rabbit penis length; design: species or system New Zealand rabbits; conditions: Table 8; oral 70 mg/kg; SNP 0.2 mg/kg iv 60 min after; 0-180 min
# Method: Experiment 7: Assay of Pharmacological Activity In Vivo (Oral Administration)
# After accommodating with the environment, the New Zealand rabbits were grabbed everyday. When the rabbits were accustomed to the repeated grabbing, drug administration was began. The animals were randomly divided into groups by weight, with 6 rabbits of each group. […] The corresponding test compounds were orally administrated to animals of each group. The dosage was 70 mg/kg, and the administration volume was 1 mL/kg. SNP (0.2 mg/kg, 0.5 mL/kg) was injected into the auricular veins of rabbits 60 min after the administration of the test compounds. The length of the rabbit's penis was measured with a digital caliper before and 10, 15, 30, 50, 60, 65, 70, 75, 90, 110, 120 and 180 min after the administration. Touch of the rabbit's penis by the caliper was avoided during the measurements.
# [6] = Pharmacokinetics (PK) in SD rats; format: in vivo; conditions: rat; for half-life / bioavailability / AUC(0-inf) / Cmax / Tmax: SD, plasma; for bioavailability: read-out: F % (absolute bioavailability)
# hERG channel = hERG channel (Homo sapiens (Human), UniProt Q12809); assay: hERG potassium channel whole-cell patch clamp on CHO-K1 cell line
# Chain of hERG channel (Q12809 whole entry): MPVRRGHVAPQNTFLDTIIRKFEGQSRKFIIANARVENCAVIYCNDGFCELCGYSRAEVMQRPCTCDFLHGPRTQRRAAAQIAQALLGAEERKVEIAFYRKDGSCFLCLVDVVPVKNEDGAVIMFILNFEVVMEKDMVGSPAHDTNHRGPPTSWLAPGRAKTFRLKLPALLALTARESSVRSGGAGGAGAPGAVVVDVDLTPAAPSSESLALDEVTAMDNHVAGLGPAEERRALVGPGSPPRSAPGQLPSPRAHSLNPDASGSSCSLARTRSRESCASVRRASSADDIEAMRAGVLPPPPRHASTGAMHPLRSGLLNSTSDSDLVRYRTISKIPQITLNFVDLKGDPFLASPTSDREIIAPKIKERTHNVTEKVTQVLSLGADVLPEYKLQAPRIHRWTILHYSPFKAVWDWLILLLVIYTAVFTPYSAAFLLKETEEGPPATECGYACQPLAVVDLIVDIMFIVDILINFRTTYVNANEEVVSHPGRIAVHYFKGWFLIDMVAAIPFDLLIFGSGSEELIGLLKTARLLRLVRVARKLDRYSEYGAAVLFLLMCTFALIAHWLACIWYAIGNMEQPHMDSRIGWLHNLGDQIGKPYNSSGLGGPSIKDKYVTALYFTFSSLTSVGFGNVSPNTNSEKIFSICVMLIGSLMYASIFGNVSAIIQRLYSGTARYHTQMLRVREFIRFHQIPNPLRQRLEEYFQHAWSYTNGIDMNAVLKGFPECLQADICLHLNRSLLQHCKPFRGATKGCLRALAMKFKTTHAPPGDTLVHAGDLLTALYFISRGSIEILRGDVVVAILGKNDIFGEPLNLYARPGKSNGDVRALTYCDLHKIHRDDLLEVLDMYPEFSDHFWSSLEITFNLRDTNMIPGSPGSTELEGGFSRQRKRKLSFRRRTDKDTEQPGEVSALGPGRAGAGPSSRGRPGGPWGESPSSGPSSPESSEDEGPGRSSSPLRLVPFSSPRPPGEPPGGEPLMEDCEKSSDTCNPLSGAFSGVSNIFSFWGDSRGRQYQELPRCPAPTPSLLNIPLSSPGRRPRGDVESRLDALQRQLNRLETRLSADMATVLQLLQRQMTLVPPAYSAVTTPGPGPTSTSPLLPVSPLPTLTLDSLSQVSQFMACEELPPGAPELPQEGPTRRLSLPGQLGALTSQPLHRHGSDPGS
# Text: Experiment 8: Detection of Inhibitory Effect of the Compounds of the Present Invention on hERG Potassium Channel by the Patch Clamp Method
# Rapidly activated human delayed rectifying outward potassium current (IKr) is mainly mediated by hERG ion channel and is involved in repolarization of human cardiac muscle cell. Clinically, blocking of the current by a drug is the main cause of QT interval prolongation syndrome, acute arrhythmia and even sudden death. The main purpose of the experiment is to test the blocking effect of the compounds of the present invention on hERG channel, and to determine the half maximal inhibitory concentration (IC50) of the compounds.
# The experiment mainly included: (1) recording hERG current by patch clamp technique on CHO-K1 cell line which stably expressed hERG channel; (2) calculating the Inhibition rate of each concentration according to hERG tail current; (3) testing each compound at 5 concentrations to calculate IC50; (4) testing 2 cells at each concentration; (5) a positive control.
# The structures and synthesis of Compound 88 (WO-88) and Compound 93 (WO-93) as disclosed in WO200119802A were described in Example 55 and Example 56.
# Drug for positive control: Amitriptyline hydrochloride (Sigma-Aldrich, an international standard blocker for hERG channel)
# Pippette Solution (in mM): KCl 120, KOH 31.25, CaCl2 5.374, MgCl2 1.75, Ethylene glycol-bis(β-aminoethyl ether)-N,N,N′,N′-tetraacetic acid (EGTA) 10, HEPES 10, Na2-ATP 4, adjusted to a pH of 7.2 with 1N potassium hydroxide; adjusted to an osmotic pressure of 280-290 mOsm; preserved at −20° C. after filtration.
# Preparation of compounds: Some of the compounds of the present invention and Amitriptyline hydrochloride as the positive control drug were separately dissolved in 100% DMSO (Merck, 61850125001730), then prepared into stock solutions of 30 mM. Before the experiment, the above stock solutions were diluted with DMSO to a concentration of 1000-fold of the experimental concentration. Then the diluted solutions were further diluted with extracellular solution by 1:1000 to the required experimental concentration. The final concentration of DMSO in the extracellular solution was kept as 0.1%.
# Stable cell line CHO-hERG was purchased from AVIVA Company. The hERG current on the cell line was recorded. For the purpose of quality control, the smallest seal resistance was no less than 500 MΩ, and the hERG current was no less than 0.4 nA.
# The hERG current was recorded by a whole-cell patch clamp technique. Cell suspension was added into a 35-mm culture dish. The culture dish was placed on the objective table of an inverted microscope. Upon cell attachment, perfusion was conducted with the extracellular solution at a flow rate of 1-2 mL/min.
# Glass microelectrode with the pipette tip resistance of 2-5 MΩ was controlled by a microelectrode puller via a two-step process. After the whole-cell record was set up, the clamp potential was kept at −80 mV. The cell was depolarized to +60 mV by applying a voltage stimulus, and then repolarized to −50 mV to obtain the hERG tail current. Recordation was conducted after the current was stable. The extracellular perfusion was started from the lowest concentration, with 5-10 min for each concentration until the current was stable, and then conducted with the next concentration.
# Stimulus payment and signal collection were performed by A/D-D/A conversion using Digidata 1440 (Molecular Devices) and pCLAMP software (Version 10.2, Molecular Devices). Signal amplification was performed on a patch clamp amplifier (Multiclamp 700B, Molecular Devices), with a filter of 1 KHz. Further data analysis and curve fitting were conducted by Clampfit (version 10.2, Molecular Devices) and Prism. The data were presented as mean value±standard deviation.
# In the process of data analysis, the peak value and the baseline of the tail current were corrected when determining the blocking effect on hERG.
# [7] = in human; cited from earlier work
# PDE-6 = conditions: cited from earlier work
# PDE-11 = PDE-11 (Homo sapiens (Human), UniProt Q9HCR9); conditions: cited from earlier work
# Chain of PDE-11 (Q9HCR9 whole entry): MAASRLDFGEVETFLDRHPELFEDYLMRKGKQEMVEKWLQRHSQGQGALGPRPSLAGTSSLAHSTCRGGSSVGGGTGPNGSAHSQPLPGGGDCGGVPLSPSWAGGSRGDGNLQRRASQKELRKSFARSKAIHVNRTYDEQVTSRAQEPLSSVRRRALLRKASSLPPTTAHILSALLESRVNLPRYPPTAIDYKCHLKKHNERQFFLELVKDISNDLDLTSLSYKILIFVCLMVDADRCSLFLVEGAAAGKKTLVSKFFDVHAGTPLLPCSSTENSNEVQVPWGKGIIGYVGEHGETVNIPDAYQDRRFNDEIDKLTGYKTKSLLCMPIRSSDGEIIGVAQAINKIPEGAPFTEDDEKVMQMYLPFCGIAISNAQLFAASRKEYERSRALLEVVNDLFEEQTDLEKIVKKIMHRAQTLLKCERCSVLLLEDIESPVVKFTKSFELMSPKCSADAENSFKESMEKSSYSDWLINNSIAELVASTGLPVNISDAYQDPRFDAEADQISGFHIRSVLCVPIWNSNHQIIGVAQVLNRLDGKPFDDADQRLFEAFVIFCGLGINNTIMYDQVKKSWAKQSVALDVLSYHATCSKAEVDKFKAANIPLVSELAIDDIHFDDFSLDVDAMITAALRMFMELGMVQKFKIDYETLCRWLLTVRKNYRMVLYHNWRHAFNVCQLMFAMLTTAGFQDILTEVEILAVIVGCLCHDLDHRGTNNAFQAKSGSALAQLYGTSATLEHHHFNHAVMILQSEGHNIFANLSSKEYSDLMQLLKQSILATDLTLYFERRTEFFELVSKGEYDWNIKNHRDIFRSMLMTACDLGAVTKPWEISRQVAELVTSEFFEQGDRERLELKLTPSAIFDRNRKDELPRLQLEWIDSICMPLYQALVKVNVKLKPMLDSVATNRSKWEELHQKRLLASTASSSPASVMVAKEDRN
# bovine retinal PDE-6 [8] = assay: PDE-6 enzyme assay, [3H]cGMP; format: biochemical; conditions: for selectivity on PDE-5 enzyme versus PDE-6 (in words): selectivity >70 called high
# Method: as §1, §2, §3
# PDE-5A enzyme = PDE-5A enzyme (Homo sapiens (Human), UniProt O76074); assay: Caliper Mobility-Shift PDE-5A Assay; format: biochemical; conditions: Table 1; Avanafil value is the control
# [9] = Table 2, human blood platelet enzyme, read-out: IC50 on PDE-5
# [10] = Table 4-1, read-out: PDE-5 (IC50 nM)
# [11] = Table 3, read-out: IC50 on PDE-6
# [12] = Table 4-1, read-out: PDE-6 (IC50 nM)
# [13] = po, intragastric administration, 2 mg/kg
# [14] = po, intragastric administration, 5 mg/kg
SMILES,"IC50 [1, 9] [nM]","IC50 [1, 10] [nM]",IC50 (bovine retinal PDE-6 [2]; [11]) [nM],IC50 (bovine retinal PDE-6 [2]; [12]) [nM],"AUC of penis length ([3]; Table 6, 2 mL/kg) [mm × min]",AUC of penis length [4] [mm × min],AUC of penis length [5] [mm × min],"bioavailability [6, 13] [%]",IC50 (hERG channel) [nM],"AUC(0-inf) ([6]; intravenous injection, 2 mg/kg) [ng·h/mL]","Cl_obs ([6]; intravenous injection, 2 mg/kg) [mL/min/kg]","Vss_obs ([6]; intravenous injection, 2 mg/kg) [L/kg]",half-life [7],selectivity on PDE-5 enzyme versus PDE-6 (in words) (bovine retinal PDE-6 [8]),other results
"COc1ccc(CNc2nc(N3CCC4(CC4)C3)ncc2C(=O)N[C@H]2CC[C@H](O)CC2)cc1Cl [Compound 38, 4-((3-chloro-4-methoxybenzyl)amino)-N-(trans-4-hydroxycyclohexyl)-2-(5-azaspiro[2.4]heptan-5-yl)pyrimidine-5-formamide]",0.8,0.8,58,58,772.8,802.7,654.0,35,–,–,–,–,–,–,"half-life [6, 13]: 2.11 h; half-life ([6]; intravenous injection, 1 mg/kg): 3.5 h; Cl_obs ([6]; intravenous injection, 1 mg/kg): 16.8 mL/min/kg; Vss_obs ([6]; intravenous injection, 1 mg/kg): 4.47 L/kg"
"COc1ccc(CN=c2[nH]c(N3CCC[C@H]3CO)ncc2C(=O)NCc2ncccn2)cc1Cl [Avanafil, reference compound]",–,–,–,–,421.2,199.4,–,4.5,14600,382,88.5,3.56,about 1.2 h,–,"AUC of penis length ([3]; Table 5, 1 mL/kg): 317.9 mm × min; AUC(0-inf) [6, 13]: 50 ng·h/mL; Cmax [6, 13]: 18 ng/mL; Tmax [6, 13]: 0.33 h; ratio PDE-6/5 (PDE-6): about 120; inhibitory effect on PDE-11 (PDE-11): no inhibitory effect on PDE-11"
"COc1ccc(CNc2nc(N3CC4CC4C3)ncc2C(=O)N[C@H]2CC[C@H](O)CC2)cc1F (stereo partly drawn) [Compound 48, 2-(3-azabicyclo[3.1.0]hexan-3-yl)-4-((3-fluoro-4-methoxybenzyl)amino)-N-(trans-4-hydroxycyclohexyl)pyrimidine-5-formamide]",7.99,7.99,1110,1110,–,–,–,–,8760,2060,17,4.59,–,higher selectivity on PDE-5 enzyme than to PDE-6,"Selectivity (PDE-6/PDE-5) (bovine retinal PDE-6 [8]; IC50 for PDE-6/IC50 for PDE-5): 140; inhibitory effect on hERG channel (in words) (hERG channel): slight inhibitory effect; AUC(0-inf) [6, 14]: 2330 ng·h/mL; Cmax [6, 14]: 415 ng/mL; Tmax [6, 14]: 2 h; half-life [6, 14]: 2 h; bioavailability [6, 14]: 63%; half-life ([6]; intravenous injection, 2 mg/kg): 4.4 h"
"COc1ccc(CNc2nc(N3CC4CC4C3)ncc2C(=O)NCc2ccccc2)cc1Cl (stereo not drawn) [Compound 3, N-benzyl-2-(3-azabicyclo[3.1.0]hexan-3-yl)-4-((3-chloro-4-methoxybenzyl)amino)pyrimidine-5-formamide]",0.91,–,–,8.89,–,–,46.26,–,> 27800,–,–,–,–,higher selectivity on PDE-5 enzyme than to PDE-6,"IC50 (PDE-5A enzyme): 12.9 nM; inhibitory effect on hERG channel (in words) (hERG channel; human, CHO-K1 cells stably expressing hERG channel, pH 7.4): none of Compound 3, 11 and 50 of the present invention had a significant inhibitory effect"
CN1CC(=O)N2[C@H](c3ccc4c(c3)OCO4)c3[nH]c4ccccc4c3C[C@@H]2C1=O [Tadalafil],–,–,–,–,–,–,–,–,–,–,–,–,about 16 h,–,–
